These results are taken from patent US8436024B2, “2-pyridone compounds” (Astrazeneca AB, priority 2009, dated 2013).

As a reminder, the IC50 is the concentration that inhibits the measured activity by half.

Series [1] can be described thus: Humidity interaction (hygroscopicity determination) by Gravimetrical Vapour Sorption. It counts as physicochemical. The conditions noted are these: for hygroscopicity: relative change in weight between 0% RH and 80% RH, second cycle, benzenesulfonate. Here is the method: Run time was 6.2 minutes; post time was 2.3 min; and detection was at 235 nm. • (v) In general, the course of reactions was followed by TLC and reaction times are given for illustration only. • (vi) Yields are given for illustration only and are not necessarily those which can be obtained by diligent process development; preparations were repeated if more material was required. • (vii) Chemical symbols have their usual meanings; SI units and symbols are used. • (viii) Solvent ratios are given in volume: volume (v/v) terms. • (ix) Mass spectra (MS) (loop) were recorded on a Micromass Platform LC equipped with HP 1100 detector; unless otherwise stated the mass ion quoted is (MH^+). • (x) X-ray Powder Diffraction patterns were collected on a PANalytical X′Pert PRO MPD theta-theta system, equipped with a focusing beam Johansson monochromator and an X′Celerator detector, using CuKα1 radiation (1.5406 Å, 45 kV, 40 mA). The diffraction pattern was collected between 2 and 40 °2θ in a continuous scan mode. The scan speed was 0.86°/min. with an increment of 0.016°. Samples were mounted on single silicon crystal wafer mounts. • (xi) Humidity Interaction (hygroscopicity determination): The gravimetric responses of test samples to changes in humidity were investigated using a TGA 5000 (TA Instruments) Gravimetrical Vapour Sorption (GVS). The relative humidity (RH) was raised in steps of 10% to 90% RH and lowered back to 0% RH in two cycles. Each level of RH was held until the equilibrium condition (sample weight change<0.005 wt % per 10 minutes) was reached. 3-5 mg of the test sample was placed in the cup and evaluated. The hygroscopicity was calculated as the relative change in weight of the sample between 0% RH at the start of the second cycle and 80% RH during the increase of humidity in the second cycle. […]

For series [2], the target named is T1, Human Neutrophil Elastase (HNE) (Homo sapiens, UniProt P08246).
T1 sequence (P08246 30-267): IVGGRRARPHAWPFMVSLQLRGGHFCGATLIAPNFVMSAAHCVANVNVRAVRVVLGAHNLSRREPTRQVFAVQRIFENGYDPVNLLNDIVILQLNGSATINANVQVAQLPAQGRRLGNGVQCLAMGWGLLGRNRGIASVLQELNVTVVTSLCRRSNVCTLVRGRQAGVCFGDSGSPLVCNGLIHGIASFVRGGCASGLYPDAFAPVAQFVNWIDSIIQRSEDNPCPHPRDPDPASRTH
Kind of series: Human Neutrophil Elastase Quenched-FRET Assay. It counts as biochemical. As to conditions: geomean of measured IC50 values; HNE 0.17 nM, substrate MeOSuc-AAPV-AMC 100 μM, 90 min at room temperature; read-out: Inhibition of Human Neutrophil Elastase IC50. As for the experimental part: Human Neutrophil Elastase Quenched-FRET Assay The assay uses Human Neutrophil Elastase (HNE) purified from serum (Calbiochem art. 324681; Ref Baugh, R. J. et al., 1976, Biochemistry. 15, 836-841). HNE was stored in 50 mM sodium acetate (NaOAc), 500 mM sodium chloride (NaCl), pH 5.5 with added 50% glycerol at −20° C. The protease substrate used was Elastase Substrate V Fluorogenic, MeOSuc-AAPV-AMC (Calbiochem art. 324740; Ref Castillo, M. J. et al., 1979, Anal. Biochem. 99, 53-64). The substrate was stored in dimethyl sulphoxide (DMSO) at −20° C. The assay additions were as follows: Test compounds and controls were added to black 384-well flat-bottom plates (Greiner 781076), 0.2 μL in 100% DMSO, followed by 10 μL HNE in assay buffer with 0.01% Triton (trade mark) X-100 detergent. The assay buffer constitution was: 100 mM Tris(hydroxymethyl)aminomethane (TRIS) (pH 7.5) and 500 mM NaCl. The enzyme and the compounds were incubated at room temperature for 15 minutes. Then 10 μL substrate in assay buffer was added. The assay was incubated for 90 minutes at room temperature. The concentrations of HNE enzyme and substrate during the incubation were 0.17 nM and 100 μM, respectively. The assay was then stopped by adding 20 μl stop solution (140 mM acetic acid, 200 mM sodium monochloroacetate, 60 mM sodium acetate, pH 4.3). Fluorescence was measured on a Wallac EnVision 2102 Multilabel Reader instrument at settings: Excitation 380 nm, Emission 460 nm. IC50 values were determined using Xlfit curve fitting using model 203. […] Specimen results are shown in the following Table in which the IC50 value represents the geomean of the IC50 values measured for a particular compound and “n” refers to the number of times the compound was tested: […]

As to `Cc1c(-c2ccnn2-c2ccc(C#N)cc2)cc(C(=O)NCCC[N+](C)(C)C)c(=O)n1-c1cccc(C(F)(F)F)c1.O=S(=O)([O-])c1ccccc1` [Example 10, 3-(5-(1-(4-cyanophenyl)-1H-pyrazol-5-yl)-6-methyl-2-oxo-1-(3-(trifluoromethyl)phenyl)-1,2-dihydropyridine-3-carboxamido)-N,N,N-trimethylpropan-1-aminium benzenesulfonate], the “hygroscopicity (in words)” value in series [1] (description of the crystalline modification) was “low hygroscopicity”. In series [1] (listed as Form B), the hygroscopicity is 0.4 % (w/w).

In the case of `Cc1c(-c2ccnn2-c2ccc(C#N)cc2)cc(C(=O)NCCC[N+](C)(C)C)c(=O)n1-c1cccc(C(F)(F)F)c1` [Example 7, 3-(5-(1-(4-cyanophenyl)-1H-pyrazol-5-yl)-6-methyl-2-oxo-1-(3-(trifluoromethyl)phenyl)-1,2-dihydropyridine-3-carboxamido)-N,N,N-trimethylpropan-1-aminium bromide], in series [2], the 50% inhibitory concentration (IC50) amounted to 0.57 nM.

In the case of `Cc1c(-c2ccnn2-c2ccc(C#N)cc2)cc(C(=O)NCC[N+](C)(C)C)c(=O)n1-c1cccc(C(F)(F)F)c1` [Example 3, 2-[({5-[1-(4-cyanophenyl)-1H-pyrazol-5-yl]-6-methyl-2-oxo-1-[3-(trifluoromethyl)phenyl]-1,2-dihydropyridin-3-yl}carbonyl)amino]-N,N,N-trimethylethanaminium acetate], the IC50 in series [2] was 1.05 nM.

`Cc1c(-c2ccnn2-c2ccc(C#N)cc2)cc(C(=O)NCCC[N+](C)(C)C)c(=O)n1-c1cccc(C(F)(F)F)c1.O=S(=O)([O-])c1ccccc1` [Example 9, 3-(5-(1-(4-cyanophenyl)-1H-pyrazol-5-yl)-6-methyl-2-oxo-1-(3-(trifluoromethyl)phenyl)-1,2-dihydropyridine-3-carboxamido)-N,N,N-trimethylpropan-1-aminium benzenesulfonate]: in series [1] (listed as Form A), the hygroscopicity is on record as 0.8 % (w/w).

On to `Cc1c(-c2ccnn2-c2ccc(C#N)cc2)nc(C(=O)NCCC[N+](C)(C)C)c(=O)n1-c1cccc(C(F)(F)F)c1` [Example 6, 3-[({6-[1-(4-cyanophenyl)-1H-pyrazol-5-yl]-5-methyl-3-oxo-4-[3-(trifluoromethyl)phenyl]-3,4-dihydropyrazin-2-yl}carbonyl)amino]-N,N,N-trimethylpropan-1-aminium iodide], for which, in series [2], the IC50 was 3.48 nM.

Regarding `Cc1c(-c2ccnn2-c2ccc(C#N)cc2)cc(C(=O)NCCC[N+](C)(C)C)c(=O)n1-c1cccc(C(F)(F)F)c1` [Example 9a, 3-(5-(1-(4-cyanophenyl)-1H-pyrazol-5-yl)-6-methyl-2-oxo-1-(3-(trifluoromethyl)phenyl)-1,2-dihydropyridine-3-carboxamido)-N,N,N-trimethylpropan-1-aminium benzenesulfonate], the IC50 in series [2] is 1.1 nM.

Consider `Cc1c(-c2ccnn2-c2ccc(C#N)cc2)cc(C(=O)NCCCC[N+]2(C)CCCC2)c(=O)n1-c1cccc(C(F)(F)F)c1` [Example 2, 1-{-4-[({5-[1-(4-cyanophenyl)-1H-pyrazol-5-yl]-6-methyl-2-oxo-1-[3-(trifluoromethyl)phenyl]-1,2-dihydropyridin-3-yl}carbonyl)amino]butyl}-1-methylpyrrolidinium acetate], for which the half-maximal inhibitory concentration (IC50) in series [2] came out at 0.771 nM.

On to `Cc1c(-c2ccnn2-c2ccc(C#N)cc2)cc(C(=O)NCC[N+]2(C)CCCC2)c(=O)n1-c1cccc(C(F)(F)F)c1` [Example 1, 1-{2-[({5-[1-(4-cyanophenyl)-1H-pyrazol-5-yl]-6-methyl-2-oxo-1-[3-(trifluoromethyl)phenyl]-1,2-dihydropyridin-3-yl}carbonyl)amino]ethyl}-1-methylpyrrolidinium acetate], for which, in series [2], the IC50 is 0.949 nM.

`Cc1c(-c2ccnn2-c2ccc(C#N)cc2)cc(C(=O)NCCC[N+]2(C)CCCC2)c(=O)n1-c1cccc(C(F)(F)F)c1` [Example 5, 1-{3-[({5-[1-(4-cyanophenyl)-1H-pyrazol-5-yl]-6-methyl-2-oxo-1-[3-(trifluoromethyl)phenyl]-1,2-dihydropyridin-3-yl}carbonyl)amino]propyl}-1-methylpyrrolidinium iodide]: the IC50 in series [2] was 0.971 nM.

As to `Cc1c(-c2ccnn2-c2ccc(C#N)cc2)cc(C(=O)NCCCC[N+](C)(C)C)c(=O)n1-c1cccc(C(F)(F)F)c1` [Example 4, 4-[({5-[1-(4-cyanophenyl)-1H-pyrazol-5-yl]-6-methyl-2-oxo-1-[3-(trifluoromethyl)phenyl]-1,2-dihydropyridin-3-yl}carbonyl)amino]-N,N,N-trimethylbutan-1-aminium iodide], the IC50 in series [2] came out at 0.934 nM.
